{
  "source": "patent US20080032945A1",
  "about": "“2'-MODIFIED OLIGONUCLEOTIDES” (Isis Pharmaceuticals, Inc., priority 1992, published 2008)",
  "format_in_all_cases": "cell-based, human",
  "key": {"[1]": {"tested_on": "PKC-α mRNA", "assay": "Northern blot analysis of PKC-α mRNA levels", "conditions": "result in words", "protocol": "Oligonucleotides having SEQ ID NO:4 were synthesized as uniformly phosphorothioate chimeric oligonucleotides having a centered deoxy gap of varying lengths flanked by 2′-O-methylated regions. These oligonucleotides (500 nM concentration) were tested for effects on PKC-A mRNA levels by Northern blot analysis.\nAdditional phosphorothioate oligonucleotides targeted to the human PKC-α 3′ untranslated region were designed and synthesized."}, "[2]": {"tested_on": "ras-luciferase (codon-12 point mutation of activated H-ras)", "assay": "ras-luciferase reporter gene system", "conditions": "for effect on ras expression: chimeric backbone-modified oligonucleotides, result in words; for inhibition of ras-luciferase activity: cells expressing the mutant form of ras-luciferase, dose response, FIGS. 1 and 2"}, "[3]": {"tested_on": "ras mRNA", "assay": "Northern blot analysis of ras expression in T24 cells", "protocol": "The human urinary bladder cancer cell line T24 was obtained from the American Type Culture Collection (Rockville Md.). Cells were grown in McCoy's 5A medium with L-glutamine (GIBCO-BRL, Gaithersburg, Md.), supplemented with 10% heat-inactivated fetal calf serum and 50 U/ml each of penicillin and streptomycin. Cells were seeded on 100 mm plates. When they reached 70% confluency, they were treated with oligonucleotide. Plates were washed with 10 ml prewarmed PBS and 5 ml of OptiMEM (GIBCO) reduced-serum medium containing 2.5 μl DOTMA. Oligonucleotide was then added to the desired concentration. After 4 hours of treatment, the medium was replaced with McCoy's medium. Cells were harvested 48 hours after oligonucleotide treatment and RNA was isolated using a standard CsCl purification method. [Kingston in Current Protocols in Molecular Biology, F. M. Ausubel, R. Brent, R. E. Kingston, D. D. Moore, J. A. Smith, J. G. Seidman and K. Strahl, Eds., John Wiley and Sons, New York.] The human epithelioid carcinoma cell line HeLa 229 was obtained from the American Type Culture Collection (Bethesda, Md.). HeLa cells were maintained as monolayers on 6-well plates in Dulbecco's Modified Eagle's medium (DMEM) supplemented with 10% fetal bovine serum and 100 U/ml penicillin. Treatment with oligonucleotide and isolation of RNA were essentially as described above for T24 cells.\nNorthern hybridization: 10 μg of each RNA was electrophoresed on a 1.2% agarose/formaldehyde gel and transferred overnight to GeneBind 45 nylon membrane (Pharmacia LKB, Piscataway, N.J.) using standard methods. [Kingston in Current Protocols in Molecular Biology, F. M. Ausubel, R. Brent, R. E. Kingston, D. D. Moore, J. A. Smith, J. G. Seidman and K. Strahl, Eds., John Wiley and Sons, New York.] RNA was UV-crosslinked to the membrane. Double-stranded ^32P-labeled probes were synthesized using the Prime a Gene labeling kit (Promega, Madison Wis.). The ras probe was a SalI-NheI fragment of a cDNA clone of the activated (mutant) H-ras mRNA having a GGC-to-GTC mutation at codon-12. The control probe was G3PDH. Blots were prehybridized for 15 minutes at 68° C. with the QuickHyb hybridization solution (Stratagene, La Jolla, Calif.). The heat-denatured radioactive probe (2.5×10^6 counts/2 ml hybridization solution) mixed with 100 μl of 10 mg/ml salmon sperm DNA was added and the membrane was hybridized for 1 hour at 68° C. The blots were washed twice for 15 minutes at room temperature in 2×SSC/0.1% SDS and once for 30 minutes at 60° C. with 0.1×SSC/0.1% SDS. Blots were autoradiographed and the intensity of signal was quantitated using an ImageQuant PhosphorImager (Molecular Dynamics, Sunnyvale, Calif.). Northern blots were first hybridized with the ras probe, then stripped by boiling for 15 minutes in 0.1×SSC/0.1% SDS and rehybridized with the control G3PDH probe to check for correct sample loading."}},
  "note": "Read-outs that look alike come from different tables or passages of the source.",
  "data": [
    {"substance": "AsAsAsAsCsGsTsCsAsGsCsCsAsTsGsGsTsCsCsC (AAAACGTCAGCCATGGTCCC; all phosphorothioate, sugars by position and methylation of C not given here; further chemistry not fully specified) [Oligonucleotide 5352]", "values": [
      {"measurement": "effect on PKC-α mRNA levels", "setting": "[1]", "value": "most active"}
    ]},
    {"substance": "TsTsCs TsCsGs CsTsGs GsTsGs AsGsTs TsTsC (TTCTCGCTGGTGAGTTTC; all phosphorothioate, sugars by position and methylation of C not given here; further chemistry not fully specified) [Oligonucleotide 6632]", "values": [
      {"measurement": "effect on PKC-α mRNA levels", "setting": "[1]", "value": "most active"}
    ]},
    {"substance": "AsAoAoAoCoGsTsCsAsGsCsCsAsTsGoGoToCoCsC (AAAACGTCAGCCATGGTCCC; linkages s1 o4 s9 o4 s1 (s phosphorothioate, o phosphodiester), sugars by position and methylation of C not given here; further chemistry not fully specified) [Oligonucleotide 7008]", "values": [
      {"measurement": "effect on PKC-α mRNA levels", "setting": "[1]; listed as 7008", "value": "reduction of PKC-α mRNA"}
    ]},
    {"substance": "TsCsTs CsGsCs TsGsGs TsGsAs GsTsTs TsC (TCTCGCTGGTGAGTTTC; all phosphorothioate, sugars by position and methylation of C not given here; further chemistry not fully specified) [Oligonucleotide 7082]", "values": [
      {"measurement": "effect on PKC-α mRNA levels", "setting": "[1]", "value": "most active"}
    ]},
    {"substance": "CsCsAsCsAsCsCsGsAoCsGsGsCsGsCsCsC [ISIS 4248]", "values": [
      {"measurement": "effect on ras expression", "setting": "[2]", "value": "just as active as a full P═S molecule"}
    ]},
    {"substance": "oligonucleotide with the 2′-O-propyl diester flanking regions: SEQ ID NO:1, phosphorothioate backbone in the 7-base deoxy gap only, phosphodiester 2′-O-propyl flanking regions (CCACACCGACGGCGCCC; 2'-O-propyl phosphodiester flanks, 7-deoxy phosphorothioate gap, exact positions not given here)", "values": [
      {"measurement": "effect on ras expression", "setting": "[2]", "value": "able to inhibit ras expression"}
    ]},
    {"substance": "CsCsAsCoAoCoCoGoAoCoGoGoCoGsCsCsC [ISIS 4241]", "values": [
      {"measurement": "effect on ras expression", "setting": "[2]", "value": "completely inactive"}
    ]},
    {"substance": "CTTATATTCCGTCATCGCTC (chemistry not given here) [Oligonucleotide 4998, chimeric phosphorothioate, 7-base deoxy gap flanked by 2′-O-methyl regions, AUG target]", "values": [
      {"measurement": "inhibition of ras expression / decrease of ras mRNA", "setting": "[3]; listed as 4998", "value": 84, "unit": "%"}
    ]},
    {"substance": "C^MC^MA^M C^MA^MC^M CdGdAd CdGdG^M C^MG^MC^M C^MC^M [Oligonucleotide 3980]", "values": [
      {"measurement": "inhibition of ras expression / decrease of ras mRNA", "setting": "[3]", "value": 61, "unit": "%"},
      {"measurement": "inhibition of ras-luciferase activity", "setting": "[2]", "value": "next greatest inhibition"}
    ]},
    {"substance": "C^MC^MA^M C^MA^MC^M C^MGdAd CdG^MG^M C^MG^MC^M C^MC^M [Oligonucleotide 3979]", "values": [
      {"measurement": "inhibition of ras-luciferase activity", "setting": "[2]", "value": "measurable activity for the three nucleotide subsequence oligonucleotide 3979 at the highest concentration dose"}
    ]},
    {"substance": "C^MC^MA^M C^MA^MC^M C^MG^MAd C^MG^MG^M C^MG^MC^M C^MC^M [Oligonucleotide 3975]", "values": [
      {"measurement": "inhibition of ras-luciferase activity", "setting": "[2]", "value": "neither of the oligonucleotides having either the one or the three 2′-deoxy-erythro-pentofuranosyl nucleotide subsequences showed significant activity"}
    ]},
    {"substance": "TCCGTCATCGCTCCTCAGGG [Oligonucleotide 5122]", "values": [
      {"measurement": "inhibition of ras expression / decrease of ras mRNA", "setting": "[3]; listed as 5122", "value": 15, "unit": "%"}
    ]},
    {"substance": "CTTATATTCCGTCATCGCTC (chemistry not given here) [Compound 2502, phosphorothioate oligonucleotide complementary to the ras AUG region, 20 deoxy, reference compound]", "values": [
      {"measurement": "inhibition of ras expression / decrease of ras mRNA", "setting": "[3]", "value": 26, "unit": "%"}
    ]},
    {"substance": "C^MC^MA^M C^MAdCd CdGdAd CdGdGd CdG^MC^M C^MC^M [Oligonucleotide 3984]", "values": [
      {"measurement": "inhibition of ras expression / decrease of ras mRNA", "setting": "[3]", "value": 81, "unit": "%"},
      {"measurement": "inhibition of ras-luciferase activity", "setting": "[2]", "value": "greater inhibition of ras-luciferase activity than did oligonucleotide 2570"}
    ]}
  ]
}
